US11246949B2, “Imaging contrast agents and uses thereof” (The Research Foundation for The State University of New York, priority 2011, dated 2022)

Legend:
[1] = Electrochemical potential E° vs. NHE; assay type: physicochemical; conditions: 100 mM tetrabutylammonium hexafluorophosphate in acetonitrile
From the text: In an embodiment, the compounds of the invention are stable towards chemical reaction in an oxidative environment (i.e., in the presence of biologically relevant concentrations of peroxide or oxygen). In an embodiment, the stability in an oxidative environment can be related to the reduction potential of the complex. In an embodiment, the compounds of the present invention have a reduction potential greater than 600 mV vs. NHE (Normal Hydrogen Electrode) as shown in Table 1. Generally, the compounds of the invention have a reduction potential above 800 mV vs. NHE.

[2] = Ascorbate consumption (redox cycling, reactive oxygen species generation); conditions: 100 μM ascorbate, 10 μM Fe(II), 10 μM ligand, 10 mM HEPES, pH 7.4, 37° C.
[3] = Persistence of high spin Fe(II) oxidation state in aqueous solution (1H NMR, μeff); assay type: physicochemical; conditions: atmospheric oxygen, several days
Protocol: Effective magnetic moments are characteristic of high spin Fe(II) at 5.1 BM and 5.8 BM for Fe(L1) and Fe(L2), These were measured in 100 mM NaCl in D2O, pH 7.4, and D2O at pH 7.0, respectively. The ^1H NMR spectra of the two complexes show highly shifted proton resonances (FIGS. 4-5). There are nine non-exchangeable proton resonances for Fe(L2) consistent with trigonal prismatic geometry as observed previously for Fe(L3) and three sets of four chemically inequivalent proton resonances in the macrocycle backbone. […] The exchangeable amide and amine protons were identified by comparison of the ^1H NMR spectra of the complexes in H2O and […]. For Fe(L1), the amide protons are highly shifted downfield, appearing at 77 ppm. The amine protons of Fe(L2) are only slightly shifted and are observed at 11 ppm.
Generally, macrocyclic complexes in FIG. 1 are prepared from the macrocycle and Fe(II) salt such as FeCl2, or Fe(CF3SO3)2 in acetonitrile at room temperature with argon bubbled through the solvent. This helps to ensure that a negligible amount of O2 is present in the reaction flask. In the absence of an inert atmosphere, difficulties in maintaining the desired oxidation state may arise through mechanisms such as oxidation of the metal to Fe(III) prior to complexation with the ligand. […]

[4] = pH-potentiometric titrations: acid-dissociation and ligand-Fe(II) equilibrium constants; assay type: physicochemical; conditions: for formation constant log K (binding of macrocycle to metal ion): 100 mM NaCl
Protocol: FIG. 10. Representative pH-potentiometric titrations for Fe(L1) and Fe(L3) in 100 mM NaCl at 25° C.
Fe(II) paraCEST agents were developed by preparing ligands that stabilize Fe(II) and Ni(II), contain multiple exchangeable protons to enhance the CEST effect and form six or eight coordinate complexes to protect the Fe(II) from binding additional ligands that might complicate the CEST signal. The sexadentate ligands contained the macrocycle, 1,4,7-triazacyclononane, with three pendent groups while the octadentate ligands contained 1,4,7,10-tetraazacyclododecane and four pendent groups (FIG. 1 and FIG. 2). Pyridine pendent groups stabilize Fe(II) relative to Fe(III) (L2, L3), and amide pendent groups are stabilizing of Fe(II) (L1). For example, the pyridine groups in Fe(L3) lead to a high reduction potential of +930 mV vs. NHE. Amide groups contain exchangeable protons and have been commonly used as a basis for Ln(III) paraCEST agents. In contrast, amino pyridine pendent groups and the benzimidazole groups have exchangeable protons that are one bond further away from the Fe-coordinated nitrogen of the pyridine ring. Exchangeable protons close to the Fe(II) center as well as more remotely located protons appended to a ligand pi-system have been studied in this work in order to capitalize on both the dipolar and contact shift contributions of paramagnetic Fe(II). The strategy of using exchangeable protons that are remote from the metal ion center was explored in order to capitalize on both the dipolar and contact shift contributions of paramagnetic Fe(II). Fe(II) complexes were prepared in acetonitrile or in aqueous solution by simple addition of the free base form of the ligands to Fe(CF3SO3)2.

[5] = Dissociation of the metal ion complex (kinetic inertness); assay type: physicochemical

Structure (SMILES)	E° vs. NHE [1] [mV]	Ascorbate consumption [2]	formation constant log K (binding of macrocycle to metal ion) [4]	resistance to dissociation >12 h, neutral pH [5]	also measured
O=C([O-])CN(CCN(CC(=O)[O-])CC(=O)[O-])CC(=O)[O-].[Fe+3] [Fe(EDTA), reference compound]	390	77 ± 13 ×10^−5 (s^−1)			
NC(=O)CN1CCN(CC(N)=O)CCN(CC(N)=O)CC1.[Fe+2] [Fe(L1)]	860 ± 9	7.2 ± 0.96 ×10^−5 (s^−1)	13.5	Moderate	resistance to oxidation to Fe(III) [3]: resistant to oxidation to Fe(III); Log K1 ([4]; K1 = [LH+]/([L][H+]), 1.05 mM L, 1.0 mM Fe(OTf)2, 0.10 M NaCl, 25° C.): 10.19 ± 0.11; Log K2 ([4]; K2 = [LH2 2+]/([LH+][H+]), 0.10 M NaCl, 25° C.): <2; Log K3 ([4]; K3 = [LH3 3+]/([LH2 2+][H+]), 0.10 M NaCl, 25° C.): <2; Log K Fe-L ([4]; KFeL = [FeL2+]/([Fe2+][L]), 0.10 M NaCl, 25° C.): 13.47 ± 0.25; Log K FeL-OH ([4]; KFeL-OH = [FeL-OH+]/([FeL2+][OH−]), 0.10 M NaCl, 25° C.): 9.43 ± 0.18; Log K Fe-LH ([4]; KFeLH = [FeLH3+]/([FeL2+][H+]), 0.10 M NaCl, 25° C.): 5.54 ± 0.14; % dissociation over 12 hours ([5]; 12 hours): <9%
Cc1nc(CN2CCN(Cc3ccc(N)c(C)n3)CCN(Cc3ccc(N)c(C)n3)CC2)ccc1N.[Fe+2] [Fe(L2)]				good	resistance to oxidation to Fe(III) [3]: resistant to oxidation to Fe(III)
NC(=O)CN1CCN(CC(N)=O)CCN(CC(N)=O)CCN(CC(N)=O)CC1.[Fe+2] [Fe(L4)]	800 ± 5	4.0 ± 1.0 ×10^−5 (s^−1)	7.5	excellent	% dissociation over 12 hours ([5]; 12 hours): 0%; dissociation after incubation ([5]; 12 hours, 37° C., pH 4 or neutral pH with five equivalents of CuCl2 or ZnCl2): no dissociation
[Fe+2].c1ccc2[nH]c(CN3CCN(Cc4nc5ccccc5[nH]4)CCN(Cc4nc5ccccc5[nH]4)CC3)nc2c1 [Fe(L5)]				moderate	
CC(O)CN1CCN(CC(C)O)CCN(CC(C)O)CCN(CC(C)O)CC1.[Fe+2] (centres unmarked) [Fe(L6)]			9.3	Moderate	
CC(O)CN1CCNCCN(CC(C)O)CCNCC1.[Fe+2] (centres unmarked) [Fe(L7)]				moderate	
Nc1cccc(CN2CCN(Cc3cccc(N)n3)CCN(Cc3cccc(N)n3)CC2)n1.[Fe+2] [Fe(L8)]				good	
NC(=O)CN1CCN(CC(N)=O)CCN(CC(N)=O)CC1.[Ni+2] [Ni(L1)]				good	inertness towards dissociation in solution ([5]; neutral and acidic pH, at least 24 hours): inert towards dissociation
